# Assay results published in patent US20210221785A1, “AMINO-PYRIMIDONYL DERIVATIVES, A PROCESS FOR THEIR PREPARATION AND PHARMACEUTICAL COMPOSITIONS CONTAINING THEM” (LES LABORATOIRES SERVIER, priority 2018, published 2021).
# Columns and labels:
# [1] = tested on: Z138 mantle cell lymphoma tumour cell lines; experiment: In vitro cytotoxicity, MTT assay; format: cell-based; conditions: Z138 cells exposed to the test compounds for 96 hours, cell viability vs DMSO treated cells
# Outline: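 Z138 cells exposed to compounds for 96 hours, then MTT added for 4 hours. Viable cells quantified from formazan absorbance at 540 nm.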
# [2] = biological target: T1, His-His-USP7 (aa208-560, |C315A|) (Homo sapiens, UniProt Q93009, C315A); experiment: Evaluation of the inhibition of USP7 by the Fluorescence Intensity (FLINT) readings; format: biochemical; conditions: 0.25 nM His-His-USP7, compound incubated 60 minutes at 30° C., 500 nM Ubiquitin-Rhodamine-110 substrate; 50% reduction in kinetic rate
# T1 construct: His-His-USP7 (aa208-560, |C315A|); His-His (N)
# Outline: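 IC50 reflects 50% reduction in kinetic rate of rhodamine-110 release (Ex485/Em535, reads every 3 min over 21 min), normalised to DMSO and no-enzyme controls, from an 11-point 4-parameter fit. Substrate is 500 nM Ub-Rh110, added after 60 min, 30 °C preincubation of compound with 0.25 nM USP7 aa208–560 C315A. Buffer is Bicine pH 8.0 with 10% DMSO.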
# T1 sequence (Q93009 208-560 C315A): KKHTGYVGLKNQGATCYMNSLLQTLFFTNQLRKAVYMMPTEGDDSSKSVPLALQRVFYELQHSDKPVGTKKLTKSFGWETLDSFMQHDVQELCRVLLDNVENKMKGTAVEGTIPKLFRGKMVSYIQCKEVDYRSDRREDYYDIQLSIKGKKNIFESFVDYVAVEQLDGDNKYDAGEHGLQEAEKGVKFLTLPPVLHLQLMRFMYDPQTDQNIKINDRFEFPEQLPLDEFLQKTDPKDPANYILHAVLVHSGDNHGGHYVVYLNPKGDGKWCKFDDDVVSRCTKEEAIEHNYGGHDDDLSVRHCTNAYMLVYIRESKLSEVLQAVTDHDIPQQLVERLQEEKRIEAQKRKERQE
Compound,IC50 [2] [µM],"IC50 ([1]; Homo sapiens, Z-138, 96 h) [µM]",IC50 [1] [µM]
"Nc1c(Oc2ccc(F)cc2)ncn(CC2(O)CCN(C(=O)[C@@H]3CC[C@](O)(Cc4ccccc4)C[C@H]3c3ccccc3)CC2)c1=O (relative stereo) [Example 94, rel-5-amino-3-({1-[(1R,2R,4R)-4-benzyl-4-hydroxy-2-phenyl-cyclohexanecarbonyl]-4-hydroxypiperidin-4-yl}methyl)-6-(4-fluorophenoxy)-3,4-dihydropyrimidin-4-one]",0.0634,0.0494,–
"Nc1c(Oc2ccc(CNCC(F)(F)F)cc2)ncn(CC2(O)CCN(C(=O)[C@@H]3CCC(F)(F)C[C@H]3c3ccccc3)CC2)c1=O [Example 73, 5-amino-3-({1-[(1R,2R)-4,4-difluoro-2-phenylcyclohexane-1-carbonyl]-4-hydroxypiperidin-4-yl}methyl)-6-(4-[[(2,2,2-trifluoromethyl)amino]methyl]phenoxy)pyrimidin-4(3H)-one]",0.113,0.564,–
"COc1cc(Oc2ncn(CC3(O)CCN(C(=O)[C@@H]4CCC(F)(F)C[C@H]4c4ccccc4)CC3)c(=O)c2N)ccc1F [Example 16, 5-amino-3-({1-[(1R,2R)-4,4-difluoro-2-phenylcyclohexane-1-carbonyl]-4-hydroxypiperidin-4-yl}methyl)-6-(4-fluoro-3-methoxyphenoxy)pyrimidin-4(3H)-one]",0.0516,0.0424,–
"CC(N)c1ccc(Oc2ncn(CC3(O)CCN(C(=O)[C@@H]4CCC(F)(F)C[C@H]4c4ccccc4)CC3)c(=O)c2N)cc1 (single isomer, unassigned; diastereoisomer 2) [Example 55]",0.00869,–,0.264
"Nc1c(Oc2ccc(CNCc3ccccc3)cc2)ncn(CC2(O)CCN(C(=O)[C@@H]3CCC(F)(F)C[C@H]3c3ccccc3)CC2)c1=O [Example 76, 5-amino-6-{4-[(benzylamino)methyl]phenoxy}-3-({1-[(1R,2R)-4,4-difluoro-2-phenylcyclohexane-1-carbonyl]-4-hydroxypiperidin-4-yl}methyl)pyrimidin-4(3H)-one]",0.015,0.4,–

# The next lines start with results.
IC50 [2] [µM],Compound,"IC50 ([1]; Homo sapiens, Z-138, 96 h) [µM]",IC50 [1] [µM]
0.0238,"Cc1ccnnc1C#C[C@@]1(F)CC[C@@H](C(=O)N2CC[C@](O)(Cn3cnc(Oc4ccc(F)cc4)c(N)c3=O)C(F)(F)C2)[C@H](c2ccccc2)C1 [Example 171, 5-amino-3-{[(4S)-3,3-difluoro-1-[(1R,2R,4R)-4-fluoro-4-[2-(4-methylpyridazin-3-yl)ethynyl]-2-phenylcyclohexanecarbonyl]-4-hydroxypiperidin-4-yl]methyl}-6-(4-fluorophenoxy)-3,4-dihydropyrimidin-4-one]",0.0168,–
0.0895,"CC#CC1(F)CC[C@@H](C(=O)N2CCC(O)(Cn3cnc(Oc4ccc(F)cc4)c(N)c3=O)CC2)[C@H](c2ccccc2)C1 (relative stereo) [Example 125, rel-5-amino-3-[(1-{[(1R,2R)-4-fluoro-2-phenyl-4-(prop-1-yn-1-yl)cyclohexyl]carbonyl}-4-hydroxypiperidin-4-yl)methyl]-6-(4-fluorophenoxy)pyrimidin-4-one]",0.0603,–
0.0524,"Nc1cccc(C#C[C@@]2(F)CC[C@@H](C(=O)N3CC[C@](O)(Cn4cnc(Oc5ccc(F)cc5)c(N)c4=O)C(F)(F)C3)[C@H](c3ccccc3)C2)n1 [Example 163, 5-amino-3-{[(4S)-1-[(1R,2R,4R)-4-[2-(6-aminopyridin-2-yl)ethynyl]-4-fluoro-2-phenylcyclohexanecarbonyl]-3,3-difluoro-4-hydroxypiperidin-4-yl]methyl}-6-(4-fluorophenoxy)-3,4-dihydropyrimidin-4-one]",0.0277,–
0.0377,"Cc1cnc(C#CC2(F)CCC(C(=O)N3CCC(O)(Cn4cnc(Oc5ccc(F)cc5)c(N)c4=O)CC3)C(c3ccccc3)C2)cn1 [Example 150, 5-amino-3-({1-[1R,2R,4S)-4-fluoro-4-[2-(5-methylpyrazin-2-yl)ethynyl]-2-phenylcyclohexanecarbonyl]-4-hydroxypiperidin-4-yl}methyl)-6-(4-fluorophenoxy)-3,4-dihydropyrimidin-4-one]",0.0258,–
